“Also recorded” adds a separate entry of the source.
What was measured:
[1] = tested on: WT-SOD1 (Azurite, mCherry2) and MT (G93A)-SOD1 (GFP); assay: Co-inclusion of three colour variants of SOD1 in SK-N-SH cells; type: cell-based; conditions: PRG-A-04 5 μmol/L, 24 h
Method: Cells with SOD1 aggregation were counted in the fluorescent images. Depending on the intensity of SOD1, cells with SOD1 aggregates were counted in randomly selected fields and quantified as a percentage to the total cells counted. In addition, to calculate the colocalization of the three colors of SOD1, we counted the cells where the three colored images overlapped at a point of high intensity. Cell counting was performed by three independent observers, who were blinded to the transfection or chemical treatment group.
Fig. 2 PRG-A-04 suppresses SOD1 aggregation through targeting trimeric SOD1. a-b SOD1 trimer destabilizer inhibited MT-SOD1 aggregation. (a) SOD1 (GFP) expression was observed under fluorescence microscope (white arrows; strong intensity of SOD1). Scale bar, 10 μm. EV, empty vector. (b) SOD1 inclusion-positive cells (white arrows; strong intensity of SOD1) were counted and the percentages are shown as mean ± SD. c PRG-A-04 reduced SOD1 oligomerization induced by SOD1 trimer stabilizer (G147P). d-g PRG-A-04 directly bound to the mutant form of SOD1. […] (g) For quantitative analysis, the number of PRG-A-04 molecules per 100 SOD1 molecules was counted. […] (i) Cells with WT and MT-SOD1 co-inclusions were counted and the percentages are shown as mean ± SD. For cell counting, five fluorescence images were randomly selected. […]

MT-SOD1 protein uptake = assay: SOD1 recombinant protein uptake into neuronal cells; type: cell-based
Method: For monitoring the localization of SOD1 recombinant proteins, SOD1-Halo proteins were added in neuronal cultures for 2 h and then the cells were incubated with the cell-permeable HaloTag-fluorscent ligands (diAcFAM) for 30 min. After incubation, cells were washed with serum-free culture medium three times and incubated in serum-containing culture medium in a CO2 incubator for 30 min to wash out unbound ligand. Fluorescent images of live cells were obtained using a commercial Tomocube HT-2H holotomography system (Daejeon, Republic of Korea).
We hypothesized that PRG-A-04, which targets trimeric SOD1, would inhibit SOD1 protein uptake. MT-SOD1 proteins were incubated with PRG-A-04 in vitro, and then cells were treated with the mixture. The MT-SOD1 protein uptake was reduced by incubation with PRG-A-04, as was SOD1 oligomerization (Fig. 3f, g). […] However, whether neuron-specific receptors on synapses, physiological conditions (neuronal cellular stress such as ion deficiency, environmental conditions such as hypoxia) and other ALS-related genetic causes (TDP-43, FUS, etc.) are essential for SOD1 uptake requires further study.
Fig. S3 SOD1 protein uptake into the cells through endocytosis. a, The uptake of SOD1 proteins was achieved by endocytosis. SH-SY5Y cells were treated with SOD1 recombinant proteins and endocytosis inhibitor (Dynasore; […]) for 6hr. After incubations, cells were harvested with RIPA and separated by SDS-PAGE. S.E: short exposure, L.E: long exposure. b, The recombinant MT-SOD1 protein is located intracellular space in neuron cells. SOD1-Halo proteins (3 μg/ml) were treated in neuron cells for 2 hr and incubated with HaloTag-fluorscent ligands (cellpermeable ligands; diAcFAM) for 30 min. After incubation, cells were washed with fresh culture medium three times and.
Incubate cells in complete culture medium at CO2 incubator for 30 min to wash unbound ligand. The fluorescence images of live cells were obtained using a commercial holotomography (HT-2H). White arrows indicate the intensity of SOD1. BF; Bright field, Scale bar; […].

Compound: COc1cc(C=CCOC2Cc3cc4ccc(=O)oc4cc3OC2(C)C)ccc1[N+](=O)[O-] (stereo not drawn) [PRG-A-04]
- co-inclusion of WT and MT-SOD1 [1]: disappeared
- effect on MT-SOD1 protein uptake (MT-SOD1 protein uptake; MT-SOD1 protein pre-incubated with PRG-A-04 in vitro, then added to neuronal cells): selectively inhibited MT-SOD1 uptake; also recorded: reduced
- effect on SOD1 oligomerization induced by SOD1 protein uptake (MT-SOD1 protein uptake; neuronal cells): reduced SOD1 oligomerization induced by SOD1 protein uptake

— publication PMC12067741, “Inhibition of SOD1 trimerization is a novel drug target for ALS disease” (Translational Neurodegeneration, 2025)
